Laboratory results reported in the NIST ThermoML archive (doi:10.1016/j.jct.2003.11.008).

Columns and labels:
[1] = refractive index (Na D-line) (dimensionless); settings: 318.15 K; 101.33 kPa; Liquid; Standard Abbe refractometry
[2] = 318.15 K; 101.33 kPa; Liquid; Vibrating tube method
[3] = xn = mol fraction of the nth substance listed; settings: 318.15 K, 101.3 kPa, Liquid
[4] = excess molar enthalpy (molar enthalpy of mixing); xn = mol fraction of the nth substance listed; settings: 318.15 K, 101.3 kPa, Liquid

CCCCOC(C)=O [butyl ethanoate]
Settings	mass density [kg/m3]	refractive index
[1]	–	1.3825
[2]	855.39	–

CCOC(C)=O [ethyl acetate]
Settings	mass density [kg/m3]	refractive index
[1]	–	1.3597
[2]	869.54	–

CCCCCCCCCCCCCCCCC [heptadecane]
Settings	mass density [kg/m3]	refractive index
[1]	–	1.4268
[2]	760.8	–

CCCCCCC [heptane]
Settings	mass density [kg/m3]	refractive index
[1]	–	1.3748
[2]	662.04	–

COC(C)=O [methyl ethanoate]
Settings	mass density [kg/m3]	refractive index
[1]	–	1.349
[2]	900.1	–

CCCCCCCCC [nonane]
Settings	mass density [kg/m3]	refractive index
[1]	–	1.3939
[2]	698.06	–

CCCCCCCCCCCCCCC [pentadecane]
Settings	mass density [kg/m3]	refractive index
[1]	–	1.4212
[2]	750.9	–

CCCCCOC(C)=O [pentyl ethanoate]
Settings	mass density [kg/m3]	refractive index
[1]	–	1.391
[2]	852.93	–

CCCOC(C)=O [propyl ethanoate]
Settings	mass density [kg/m3]	refractive index
[1]	–	1.3721
[2]	859.78	–

CCCOC(C)=O [propyl ethanoate] + CCCCCCCCC
Settings	excess molar enthalpy, [4] [kJ/mol]	excess molar volume, [3] [m3/mol]
x1 = 0.0866	0.456	3.76e-07
x1 = 0.1486	–	5.74e-07
x1 = 0.1795	0.798	–
x1 = 0.2182	–	7.77e-07
x1 = 0.2657	1.07	–
x1 = 0.2774	–	8.96e-07
x1 = 0.344	1.23	–
x1 = 0.3451	–	9.99e-07
x1 = 0.4053	–	1.075e-06
x1 = 0.4115	1.33	–
x1 = 0.4561	–	1.101e-06
x1 = 0.4797	1.38	–
x1 = 0.5089	–	1.111e-06
x1 = 0.5358	1.37	–
x1 = 0.5631	–	1.094e-06
x1 = 0.5815	1.34	–
x1 = 0.6115	–	1.058e-06
x1 = 0.6251	1.29	–
x1 = 0.6577	–	1.012e-06
x1 = 0.6703	1.2	–
x1 = 0.7051	–	9.38e-07
x1 = 0.7182	1.1	–
x1 = 0.7328	–	8.95e-07
x1 = 0.7662	0.974	–
x1 = 0.8182	0.826	–
x1 = 0.8254	–	6.64e-07
x1 = 0.8684	0.65	–
x1 = 0.8966	–	4.35e-07
x1 = 0.9158	0.441	–
x1 = 0.9496	–	2.29e-07
x1 = 0.9598	0.232	–

CCCCCCCCCCCCC [tridecane]
Settings	mass density [kg/m3]	refractive index
[1]	–	1.4155
[2]	738.34	–

CCCCCCCCCCCCC [tridecane] + CCCCOC(C)=O
Settings	excess molar enthalpy [kJ/mol]	excess molar volume [m3/mol]
[3], x2 = 0.1024	–	3.78e-07
[3], x2 = 0.1769	–	5.73e-07
[3], x2 = 0.2511	–	7.35e-07
[3], x2 = 0.3192	–	8.56e-07
[3], x2 = 0.3845	–	9.36e-07
[3], x2 = 0.4434	–	9.93e-07
[3], x2 = 0.5021	–	1.014e-06
[3], x2 = 0.5481	–	1.023e-06
[3], x2 = 0.6023	–	1.006e-06
[3], x2 = 0.6495	–	9.59e-07
[3], x2 = 0.6914	–	9.14e-07
[3], x2 = 0.7346	–	8.49e-07
[3], x2 = 0.7647	–	7.97e-07
[3], x2 = 0.8473	–	5.94e-07
[3], x2 = 0.9072	–	3.95e-07
[3], x2 = 0.9586	–	1.65e-07
[4], x2 = 0.0771	0.382	–
[4], x2 = 0.166	0.712	–
[4], x2 = 0.2551	0.995	–
[4], x2 = 0.3371	1.2	–
[4], x2 = 0.405	1.31	–
[4], x2 = 0.4672	1.36	–
[4], x2 = 0.5179	1.38	–
[4], x2 = 0.5589	1.36	–
[4], x2 = 0.5984	1.34	–
[4], x2 = 0.6058	1.33	–
[4], x2 = 0.64	1.28	–
[4], x2 = 0.6863	1.2	–
[4], x2 = 0.7361	1.08	–
[4], x2 = 0.7879	0.939	–
[4], x2 = 0.8426	0.766	–
[4], x2 = 0.8971	0.545	–
[4], x2 = 0.9531	0.286	–
